# Reference: US9102620B2, “Deuterated N-ethyl-N-phenyl-1,2-dihydro-4-hydroxy-5-chloro-1-methyl-2-oxoquinoline-3-carboxamide, salts and uses thereof” (TEVA PHARMACEUTICAL INDUSTRIES, LTD., priority 2010, dated 2015)
# Like-named read-outs stand apart in the source and are kept apart here.
# Assays:
# CYP1A2 = conditions: human, 3 days; for Enzyme activity, Phenacetin O-dealkylation (CYP1A2) / Percent positive control, Phenacetin O-dealkylation (CYP1A2) activity: hepatocytes
# Protocol: (§1) After treatment, the cells were incubated in situ with marker substrates for the analysis of phenacetin O-dealkylation (marker for CYP1A2) and midazolam 1′-hydroxylation (marker for CYP3A4/5) by LC/MS/MS.
# (§2) Incubations of hepatocytes with probe substrates were conducted in accordance with SOP L5041.02. Approximately 24 hours after the last treatment, spent media was aspirated from the wells, and each well was rinsed two times with pre-warmed (37±2° C.) fresh culture media. Media was aspirated from the wells and reactions were started by addition of 200 μL pre-warmed media containing the probe substrate to each well. […] At 30 minutes, an aliquot (150 μL) of the incubation mixture was removed and added to a well of a 96-well plate containing 300 μL of stop reagent (acetonitrile) and internal standard (Table 2). The mixtures were mixed thoroughly and allowed to sit for at least 15 minutes at 2-8° C. Samples were centrifuged at 2000×g for 10 minutes at 2-8° C., and supernatant fractions were analyzed by LC/MS/MS.
# (§3) All analyses were performed with validated LC/MS/MS methods. The procedures used for the analysis of each metabolite followed the applicable LC/MS/MS analytical method SOPs and are summarized in Table 2. The MS equipment was either an ABI Sciex (Applied Biosystems/MDS SCIEX) API 4000 or API 3000 instrument with Shimadzu HPLC pumps and autosampler systems.
# (§4) Individual rates of reaction from like treatment groups were averaged, and for those groups with n≧3, standard deviations were determined. Fold increases were determined by dividing the enzymatic rate for each treatment group by that of the vehicle control. Percent positive control was calculated with the following equation: […]
# CYP3A4/5 = conditions: human, 3 days; for Enzyme activity, Midazolam 1′-hydroxylation (CYP3A4/5) / Percent positive control, Midazolam 1′-hydroxylation (CYP3A4/5) activity: hepatocytes
# Protocol: as §1, §2, §3, §4
# CYP1A2 mRNA = conditions: human, 3 days; for mRNA Percent positive control, CYP1A2: hepatocytes
# Protocol: as §1
# (§5) Approximately 24 hours after the last treatment, hepatocytes were lysed in TRIzol reagent after the in situ marker substrate incubations, and cell lysates were stored at −75±5° C. For human hepatocyte preparation H971, media from six wells per treatment group was aspirated, and approximately 132 μL TRIzol were added to each well. The cell lysates were mixed by repeated pipetting. Total RNA was isolated from the cell lysates using the TRIzol protocol (Invitrogen) and was purified using the RNeasy Mini Kit (Qiagen Inc.) according to SOP L6161.02. RNA quality and concentration were determined by measuring absorbance at 260 and 280 nm on a BioTek Synergy HT plate reader (BioTek Instruments, Inc.) with KC4 Signature software (version 3.4 Rev 21, BioTek Instruments, Inc.) according to SOP L6162.02. The analysis of RNA integrity was carried out with the RNA 6000 Nano Assay Kit on an Agilent 2100 Bioanalyzer (Agilent Technologies, Inc.) according to SOP L6162.02. Single-stranded cDNA was prepared from RNA with the RT Master Mix using the AB 7300 Real Time PCR system thermocycling program or AB 7900HT Fast Real Time PCR System thermocycling program (Applied Biosystems) according to SOP L6160.04. […] The RT Master Mix was added to each RNA sample to complete the components of the reaction. No template controls (NTCs) were included in the analysis. For the NTC reactions, RNase-free water was added in place of the RNA sample. The cDNA prepared samples were stored at −20±5° C. prior to analysis by qRT-PCR.
# (§6) Quantitative RT-PCR was carried out according to SOP L6160.04 (XenoTech, LLC) and the Applied Biosystems protocol. Each PCR was performed in triplicate. A Primer Mix was prepared for each Gene Expression assay. A typical Primer Mix contained TaqMan Universal Master Mix (1×), Gene Expression Assay (1×, 900 nM forward and reverse primers) and RNase-free water. The Reaction Mix was prepared by adding the Primer Mix to cDNA. A percentage of samples (no less than 10%) included NACs. […] The relative quantity of the target cDNA compared with that of the control cDNA (GAPDH) was determined by the ΔΔCt method (Applied Biosystems User Bulletin #2). Relative quantification measures the change in mRNA expression in a test sample relative to that in a control sample (e.g., DMSO). This method assumes that the efficiency of the target amplification and the efficiency of the endogenous control amplification are approximately equal.
# (§7) For qRT-PCR, data were processed using the Sequence Detection System (SDS) Software version 1.4, for Relative Quantification (Applied Biosystems). This software analyzes relative gene expression using the comparative Ct method (ΔΔCt), which relates the PCR signal of the target transcript to the PCR signal of the target in an untreated control. Both the treated sample and the untreated control signals are normalized to the endogenous control (GAPDH), for which expression is not affected by treatment and expression is constant throughout the tissue being tested. […] Calculations are as follows: ΔCt=Ct(target)−Ct(endogenous control) 1. ΔΔCt=ΔCt(treated sample)−ΔCt(untreated control) 2. Fold change in expression=2−ΔΔCt 3.
# (§8) The level of mRNA expression relative to the positive control was calculated as follows: […]
# CYP3A4 mRNA = conditions: human, 3 days; for mRNA Percent positive control, CYP3A4: hepatocytes
# Protocol: as §1, §5, §6, §7, §8
compound,measurement,setting,value
"[2H]C([2H])([2H])C([2H])([2H])N(C(=O)c1c(O)c2c(Cl)cccc2n(C)c1=O)c1ccccc1 [Compound 2, N-D5-ethyl-N-phenyl-1,2-dihydro-4-hydroxy-5-chloro-1-methyl-2-oxoquinoline-3-carboxamide]","Fold Increase, Phenacetin O-dealkylation (CYP1A2) activity",CYP1A2; 0.01 μM,7.39 fold
same,"Fold Increase, Phenacetin O-dealkylation (CYP1A2) activity",CYP1A2; 0.05 μM,10.54 fold
same,"Fold Increase, Phenacetin O-dealkylation (CYP1A2) activity",CYP1A2; 0.1 μM,16.12 fold
same,"Fold Increase, Phenacetin O-dealkylation (CYP1A2) activity",CYP1A2; 1 μM,30.36 fold
same,"Fold Increase, Phenacetin O-dealkylation (CYP1A2) activity",CYP1A2; 10 μM,60.21 fold
same,"Enzyme activity, Phenacetin O-dealkylation (CYP1A2)",CYP1A2; 0.01 μM,22.1 ± 2.7 pmol/mg protein/min
same,"Percent positive control, Phenacetin O-dealkylation (CYP1A2) activity",CYP1A2; 0.01 μM,23.3%
same,"Enzyme activity, Phenacetin O-dealkylation (CYP1A2)",CYP1A2; 0.05 μM,31.6 ± 2.6 pmol/mg protein/min
same,"Percent positive control, Phenacetin O-dealkylation (CYP1A2) activity",CYP1A2; 0.05 μM,34.9%
same,"Enzyme activity, Phenacetin O-dealkylation (CYP1A2)",CYP1A2; 0.1 μM,48.2 ± 2.4 pmol/mg protein/min
same,"Percent positive control, Phenacetin O-dealkylation (CYP1A2) activity",CYP1A2; 0.1 μM,55.2%
same,"Enzyme activity, Phenacetin O-dealkylation (CYP1A2)",CYP1A2; 1 μM,90.8 ± 11.5 pmol/mg protein/min
same,"Percent positive control, Phenacetin O-dealkylation (CYP1A2) activity",CYP1A2; 1 μM,107%
same,"Enzyme activity, Phenacetin O-dealkylation (CYP1A2)",CYP1A2; 10 μM,180 ± 8 pmol/mg protein/min
same,"Percent positive control, Phenacetin O-dealkylation (CYP1A2) activity",CYP1A2; 10 μM,216%
same,"Fold Increase, Midazolam 1′-hydroxylation (CYP3A4/5) activity",CYP3A4/5; 0.01 μM,0.91 fold
same,"Fold Increase, Midazolam 1′-hydroxylation (CYP3A4/5) activity",CYP3A4/5; 0.05 μM,0.77 fold
same,"Fold Increase, Midazolam 1′-hydroxylation (CYP3A4/5) activity",CYP3A4/5; 0.1 μM,0.72 fold
same,"Fold Increase, Midazolam 1′-hydroxylation (CYP3A4/5) activity",CYP3A4/5; 1 μM,0.56 fold
same,"Fold Increase, Midazolam 1′-hydroxylation (CYP3A4/5) activity",CYP3A4/5; 10 μM,0.51 fold
same,"Enzyme activity, Midazolam 1′-hydroxylation (CYP3A4/5)",CYP3A4/5; 0.01 μM,0.179 ± 0.006 pmol/mg protein/min
same,"Percent positive control, Midazolam 1′-hydroxylation (CYP3A4/5) activity",CYP3A4/5; 0.01 μM,−2.24%
same,"Enzyme activity, Midazolam 1′-hydroxylation (CYP3A4/5)",CYP3A4/5; 0.05 μM,0.151 ± 0.009 pmol/mg protein/min
same,"Percent positive control, Midazolam 1′-hydroxylation (CYP3A4/5) activity",CYP3A4/5; 0.05 μM,−5.94%
same,"Enzyme activity, Midazolam 1′-hydroxylation (CYP3A4/5)",CYP3A4/5; 0.1 μM,0.140 ± 0.010 pmol/mg protein/min
same,"Percent positive control, Midazolam 1′-hydroxylation (CYP3A4/5) activity",CYP3A4/5; 0.1 μM,−7.46%
same,"Enzyme activity, Midazolam 1′-hydroxylation (CYP3A4/5)",CYP3A4/5; 1 μM,0.109 ± 0.010 pmol/mg protein/min
same,"Percent positive control, Midazolam 1′-hydroxylation (CYP3A4/5) activity",CYP3A4/5; 1 μM,−11.5%
same,"Enzyme activity, Midazolam 1′-hydroxylation (CYP3A4/5)",CYP3A4/5; 10 μM,0.101 ± 0.003 pmol/mg protein/min
same,"Percent positive control, Midazolam 1′-hydroxylation (CYP3A4/5) activity",CYP3A4/5; 10 μM,−12.7%
same,"mRNA Fold increase, CYP1A2",CYP1A2 mRNA; 0.01 μM,2.84 fold
same,"mRNA Fold increase, CYP1A2",CYP1A2 mRNA; 0.05 μM,4.98 fold
same,"mRNA Fold increase, CYP1A2",CYP1A2 mRNA; 0.1 μM,7.20 fold
same,"mRNA Fold increase, CYP1A2",CYP1A2 mRNA; 1 μM,13.1 fold
same,"mRNA Fold increase, CYP1A2",CYP1A2 mRNA; 10 μM,24.3 fold
same,"mRNA Percent positive control, CYP1A2",CYP1A2 mRNA; 0.01 μM,24.2%
same,"mRNA Percent positive control, CYP1A2",CYP1A2 mRNA; 0.05 μM,52.5%
same,"mRNA Percent positive control, CYP1A2",CYP1A2 mRNA; 0.1 μM,81.7%
same,"mRNA Percent positive control, CYP1A2",CYP1A2 mRNA; 1 μM,159%
same,"mRNA Percent positive control, CYP1A2",CYP1A2 mRNA; 10 μM,307%
same,"mRNA Fold increase, CYP3A4",CYP3A4 mRNA; 0.01 μM,0.437 fold
same,"mRNA Fold increase, CYP3A4",CYP3A4 mRNA; 0.05 μM,0.428 fold
same,"mRNA Fold increase, CYP3A4",CYP3A4 mRNA; 0.1 μM,0.339 fold
same,"mRNA Fold increase, CYP3A4",CYP3A4 mRNA; 1 μM,0.252 fold
same,"mRNA Fold increase, CYP3A4",CYP3A4 mRNA; 10 μM,0.689 fold
same,"mRNA Percent positive control, CYP3A4",CYP3A4 mRNA; 0.01 μM,−15.5%
same,"mRNA Percent positive control, CYP3A4",CYP3A4 mRNA; 0.05 μM,−15.8%
same,"mRNA Percent positive control, CYP3A4",CYP3A4 mRNA; 0.1 μM,−18.2%
same,"mRNA Percent positive control, CYP3A4",CYP3A4 mRNA; 1 μM,−20.6%
same,"mRNA Percent positive control, CYP3A4",CYP3A4 mRNA; 10 μM,−8.57%
